# Paper PMC12118337, “Development of a Peptide Inhibitor Targeting the C‐SH2 Domain of the SHP2 Phosphatase” (Chembiochem, 2025)
# Residues, ends and D or L forms follow the SMILES beside them. *: point of attachment. 5FAM = O=C1OC2(c3ccc(O)cc3Oc3cc(O)ccc32)c2ccc(C(=O)*)cc21; X1 = O=C(O)C(C(=O)O)*
# Biological target: T1, SHP2 C‐SH2 domain (Homo sapiens, UniProt Q06124)
# T1 construct: SHP2 N-SH2 domain (1–105), C-SH2 domain (106–220), PTP domain (224–541) and; His6 (pETM22 vector) (N, cleaved yes); made in house; host or cells: E. coli BL21(DE3)
# T1 sequence (Q06124 106-220): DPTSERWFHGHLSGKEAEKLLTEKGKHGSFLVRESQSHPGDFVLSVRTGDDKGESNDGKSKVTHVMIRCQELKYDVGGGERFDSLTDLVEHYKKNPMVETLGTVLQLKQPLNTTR
# Test: Fluorescence polarization (FP) binding assay, SHP2 C-SH2 domain
# Settings: 100 nM FAM-labelled peptide, increasing C-SH2 protein, 50 mM HEPES pH 7.5, 150 mM NaCl, 1 mM EDTA, 0.05% Tween 20, FP at 10 min, three independent experiments in technical triplicates, read-out: K D ± SEM, C‐SH2 (FP)
# Experimental: buffer and stored in 5 mL binding buffer at 4°C. His-tagged 3C protease (0.5 mg; EMBL) was added to the pooled eluted fractions and dialysed using Spectra Por Dialysis Tubing (MWCO 6-8 kDa, 23 mm; Spectrum Labs) in 1 L of binding buffer at 4°C for 3 hours, then overnight in fresh buffer. A new column was prepared by loading 2 mL Ni-NTA Agarose (Invitrogen) as a 50% slurry in EtOH. The column was washed with 10 mL H2O to remove the EtOH and equilibrated with 10 mL binding buffer. The protein/3C protease mixture was loaded onto the column and incubated for 1 hour at 4°C on a rocker. The flow through containing the protein was collected, the column was washed with 100 mL binding buffer and the 3C protease was eluted with 5 mL elution buffer. Protein purification was monitored by SDS-PAGE using NuPAGE 4-12% Bis-Tris Protein Gels (Invitrogen) run in MOPS buffer (50 mM MOPS, 50 mM Tris-HCl pH 7.7, 1 mM EDTA, 0.1% SDS) followed by Coomassie staining using Coomassie Brilliant Blue (Roth). The purified protein was dialysed into the final storage buffer (50 mM HEPES pH 7.5, 150 mM NaCl, 2 mM DTT, 20% glycerol). Aliquots were prepared and stored at -80°C until required. […]
# 4. Fluorescence polarization
# Fluorescence polarization (FP) was used to measure the binding of FAM-labelled peptides to the SHP2 C-SH2, SHP2 N-SH2, SHP2 PTP, CSK SH2 or Src SH2 domains. Each peptide was added to increasing concentrations of SHP2 C-SH2, SHP2 N-SH2, SHP2 PTP, CSK SH2 or Src SH2 protein in FP buffer (50 mM HEPES pH 7.5, 150 mM NaCl, 1 mM EDTA, 0.05% Tween 20) to give a final peptide […]
# concentration of 100 nM in a final volume of 200 µL. For baseline subtraction, each peptide was added to FP buffer, instead of protein, with a final peptide concentration of 100 nM in a final volume of 200 µL. Samples were mixed gently then 3 x 60 µL of each sample was transferred into triplicate wells in a 96-well plate (OptiPlate-96 F Black; PerkinElmer). The FP was immediately measured on a Synergy H1 Microplate Reader (BioTek) with the excitation and emission monitored at 485 nm and 528 nm, respectively, over 30 minutes. FP values were automatically calculated by the Gen5 3.03 (BioTek) software associated with the microplate reader. Data were analysed in Excel 2016 by subtracting baseline values from FP values at 10 minutes. Data were then further analysed in GraphPad Prism 6 by plotting the baseline subtracted FP values against the protein concentration and fitting the data to a variable slope model of non-linear regression to obtain the KD values. Data are from three independent experiments, each performed in technical triplicates.
# 5. Isothermal titration calorimetry […]
# Analysis Software (Malvern Panalytical). For the data analysis, a 1:1 binding stoichiometry between the Ac-ITSM(pTyr) and SH2 domain was assumed. ITC measurements were performed once.
compound,measurement,value
CC[C@H](C)[C@H](NC(=O)[C@@H](NC(=O)[C@H](C)NC(=O)[C@H](Cc1ccc(OC(C(=O)O)C(=O)O)cc1)NC(=O)[C@H](CCC(=O)O)NC(=O)[C@@H](NC(=O)[C@H](CCC(N)=O)NC(=O)c1ccc2c(c1)C(=O)OC21c2ccc(O)cc2Oc2cc(O)ccc21)[C@@H](C)O)[C@@H](C)O)C(=O)N[C@@H](CCCCN)C(=O)N[C@@H](Cc1c[nH]cn1)C(=O)N1CCC[C@H]1C(N)=O [peptide 26] (5FAM-QTEY(X1)ATIKHP-NH2),Kd,1.6 ± 0.388 µM
